Experimental data taken from US6080738A, “Heterocyclic amide compounds and medicinal uses thereof” (Yoshitomi Pharmaceuticals Industries, Ltd., priority 1996, dated 2000).
pKi: −log10 of the molar value.

Each compound was assayed against T1, human heart chymase (Homo sapiens, UniProt P23946) (assay: Inhibitory activity on amidase activity of human heart chymase). Details: 5 nM chymase; substrate succinyl-alanyl-alanyl-prolyl-phenylalanine-p-nitroanilide 2.5 mM; Tris-HCl (100 mM)-KCl (2 M), pH 7.5.
T1 sequence (P23946 22-247): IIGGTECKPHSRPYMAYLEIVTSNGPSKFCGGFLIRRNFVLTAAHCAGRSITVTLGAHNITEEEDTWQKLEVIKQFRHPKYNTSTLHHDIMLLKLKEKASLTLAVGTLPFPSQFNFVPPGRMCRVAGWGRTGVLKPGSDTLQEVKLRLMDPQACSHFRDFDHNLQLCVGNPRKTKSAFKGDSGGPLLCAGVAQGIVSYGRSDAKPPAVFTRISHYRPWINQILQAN
Type: biochemical
Procedure: The effectiveness of the inhibitory activity of compound (I) and compound (XXVI) of the present invention was evaluated based on the inhibitory activity on amidase activity of human heart chymase, which was determined as in the following.
The inhibitory activity was quantitatively determined through variation in fractional residual activity of the enzyme caused by the inventive compound in defined serial concentration (<×1, <×10, <×100-fold equivalents) relative to 5 nM chymase in the presence of synthetic substrate, succinyl-alanyl-alanyl-prolyl-phenylalanine-p-nitroanilide (final concentration 2.5 mM). The inhibitory effect was analyzed by least square regression of Easson-Stedman plot (Proc. Roy. Soc. B. 1936, 121, p. 141) utilizing bimolecular equilibrium reaction linearization formula. The inhibitory activity was evaluated by the apparent inhibitory constant (Kiapp) obtained by this analysis and inhibitory constant (Ki) calculated from final substrate concentration in the reaction mixture and Km values separately determined. With regard to the quantlitative determination of initial rate of the enzyme reaction, the amount of p-nitroaniline produced by hydrolysis of the substrate was spectrophotometrically detected in terms of an increased absorbance which was obtained by subtracting absorbance at 650 nm wavelength from the absorbance at 405 nm. The chymase inhibitory activity of the compound of the present invention was calculated as ratio of residual activity in the presence of inhibitor relative to enzyme activity in the absence of inhibitor, and incorporation of the determination values was completed at a level less than initial rate guarantee absorbance at a concentration of the substrate used for the enzyme, after which analysis was performed.
The reaction mixture consisted of a buffer (pH 7.5, 140 μl) of Tris-HCl (100 mM) - KCl (2 M), the inventive compound dissolved in 20 μl of 10% dimethyl sulfoxide (DMSO), substrate dissolved in 20 μl of DMSO, and 20 μl of chymase, thus amounting to 200 μl in total.
Starting with the absorbance immediately after addition of the enzyme, increases in absorbance were recorded as a progressive curve taken precisely at equal time intervals.
From the above data, the difference between absorbances at completion of the reaction and immediately after addition was used to quantitatively determine the residual activity of the sample added with the inhibitor relative to a control wherein the inhibitor was not added. Alternatively, reaction rates of the control and the sample added with the inhibitor were calculated for certain time period (≥20 min) with successive shift (every 10 to 30 minutes) of the period, and the residual activity ratio was quantitatively determined and analyzed from the respective reaction rates averaged through the entire reaction time.

Structure (SMILES) | pKi
Nc1cnc(-c2ccc(F)cc2)n(CC(=O)NC(Cc2ccccc2)C(=O)c2nc3cc(C(=O)O)ccc3o2)c1=O (centres unmarked) [Example 5, 2-[5-amino-2-(4-fluorophenyl)-6-oxo-1,6-dihydro-1-pyrimidinyl]-N-[1-[(5-carboxylbenzoxazol-2-yl)carbonyl]-2-phenylethyl]acetamide] | 7.12
COC(=O)c1ccc2nc(C(=O)C(Cc3ccccc3)NC(=O)Cn3c(-c4ccc(F)cc4)ncc(N)c3=O)oc2c1 (centres unmarked) [Example 7, 2-[5-amino-2-(4-fluorophenyl)-6-oxo-1,6-dihydro-1-pyrimidinyl]-N-[1-[[6-(methoxycarbonyl)benzoxazol-2-yl]carbonyl]-2-phenylethyl]acetamide] | 7.25
O=CC(Cc1ccccc1)NC(=O)Cn1c(-c2ccc(F)cc2)ncc(NC(=O)OCc2ccccc2)c1=O (centres unmarked) [Example 9, 2-[5-benzyloxycarbonylamino-2-(4-fluorophenyl)-6-oxo-1,6-dihydro-1-pyrimidinyl]-N-(1-formyl-2-phenylethyl)acetamide] | 5.74
Nc1ccc2oc(C(=O)C(Cc3ccccc3)NC(=O)Cn3c(-c4ccc(F)cc4)ncc(N)c3=O)nc2c1 (centres unmarked) [Example 15, 2-[5-amino-2-(4-fluorophenyl)-6-oxo-1,6-dihydro-1-pyrimidinyl]-N-[1-[(5-aminobenzoxazol-2-yl)carbonyl]-2-phenylethyl]acetamide] | 6.74
O=C(Cn1c(-c2ccc(F)cc2)ncc(NC(=O)OCc2ccccc2)c1=O)NC(Cc1ccccc1)C(=O)c1nccs1 (centres unmarked) [Example 21, 2-[5-benzyloxycarbonylamino-2-(4-fluorophenyl)-6-oxo-1,6-dihydro-1-pyrimidinyl]-N-[2-phenyl-1-[(2-thiazolyl)carbonyl]ethyl]acetamide] | 6.95
CN(C)C(=O)c1ccc2oc(C(=O)C(Cc3ccccc3)NC(=O)Cn3c(-c4ccc(F)cc4)ncc(NC(=O)OCc4ccccc4)c3=O)nc2c1 (centres unmarked) [Example 31, 2-[5-benzyloxycarbonylamino-2-(4-fluorophenyl)-6-oxo-1,6-dihydro-1-pyrimidinyl]-N-[1-[[5-(dimethylaminocarbonyl)benzoxazol-2yl)carbonyl]-2-phenylethyl]acetamide] | 7.80
O=C(Cn1c(-c2ccccc2)ncc(NC(=O)OCc2ccccc2)c1=O)NC(Cc1ccccc1)C(=O)c1nc2ncccc2o1 (centres unmarked) [Example 45, 2-(5-benzyloxycarbonylamino-6-oxo-2-phenyl-1,6-dihydro-1-pyrimidinyl)-N-[1-[(oxazolo[4,5-b]pyridin-2-yl)carbonyl]-2-phenylethyl]acetamide] | 7.62
Cc1cccc(-c2ncc(NC(=O)OCc3ccccc3)c(=O)n2CC(=O)NC(Cc2ccccc2)C(=O)c2nc3cc(C(N)=O)ccc3o2)c1 (centres unmarked) [Example 53, 2-[5-benzyloxycarbonylamino-6-oxo-2-(m-tolyl)-1,6-dihydro-1-pyrimidinyl]-N-[1-[(5-carbamoylbenzoxazol-2-yl)carbonyl]-2-phenylethyl]acetamide] | 7.18
CCNC(=O)c1ccc2oc(C(=O)C(Cc3ccccc3)NC(=O)Cn3c(-c4cccc(C)c4)ncc(NC(=O)OCc4ccccc4)c3=O)nc2c1 (centres unmarked) [Example 55, 2-[5-benzyloxycarbonylamino-6-oxo-2-(m-tolyl)-1,6-dihydro-1-pyrimidinyl]-N-[1-[[5-(ethylaminocarbonyl)benzoxazol-2-yl]carbonyl]-2-phenylethyl]acetamid] | 7.23
CCN(CC)C(=O)c1ccc2oc(C(=O)C(Cc3ccccc3)NC(=O)Cn3c(-c4cccc(C)c4)ncc(N)c3=O)nc2c1 (centres unmarked) [Example 58, 2-[5-amino-6-oxo-2-(m-tolyl)-1,6-dihydro-1-pyrimidinyl]-N-[1-[[5-(diethylaminocarbonyl)benzoxazol-2-yl]carbonyl]-2-phenylethyl]acetamide] | 7.92
COC(=O)c1ccc2oc(C(=O)C(Cc3ccccc3)NC(=O)Cn3c(-c4ccncc4)ncc(NC(=O)OCc4ccccc4)c3=O)nc2c1 (centres unmarked) [Example 73, 2-[5-benzyloxycarbonylamino-6-oxo-2-(4-pyridyl)-1,6-dihydro-1-pyrimidinyl]-N-[1-[[5-(methoxycarbonyl)benzoxazol-2-yl]carbonyl]-2-phenylethyl]acetamide] | 7.23
COC(=O)c1ccc2oc(C(=O)C(Cc3ccccc3)NC(=O)Cn3c(-c4cccc(OC)c4)ncc(N)c3=O)nc2c1 (centres unmarked) [Example 88, 2-[5-amino-2-(3-methoxyphenyl)-6-oxo-1,6-dihydro-1-pyrimidinyl]-N-[1-[[5-(methoxycarbonyl)benzoxazol-2-yl]carbonyl]-2-phenylethyl]acetamide] | 8.30
COC(=O)c1ccc2oc(C(=O)C(Cc3ccccc3)NC(=O)Cn3c(-c4cccc(N)c4)ncc(N)c3=O)nc2c1 (centres unmarked) [Example 93, 2-[5-amino-2-(3-aminophenyl)-6-oxo-1,6-dihydro-1-pyrimidinyl]-N-[1-[[5-(methoxycarbonyl)benzoxazol-2-yl]carbonyl]-2-phenylethyl]acetamide] | 8.22
CC(=O)Nc1cnc(-c2ccc(F)cc2)n(CC(=O)NC(Cc2ccccc2)C(=O)c2nc3ccccc3o2)c1=O (centres unmarked) [Example 94, 2-[5-acetamide-2-(4-fluorophenyl)-6-oxo-1,6-dihydro-1-pyrimidinyl]-N-[1-[(benzoxazol-2-yl)carbonyl]-2-phenylethyl]acetamide] | 7.24

The next lines start with the values.

pKi | Structure (SMILES)
5.89 | COC(=O)c1ccc2oc(C(=O)C(Cc3ccccc3)NC(=O)Cn3c(-c4ccc(F)cc4)ncc(NC(=O)OCc4ccccc4)c3=O)nc2c1 (centres unmarked) [Example 3, 2-[5-benzyloxycarbonylamino-2-(4-fluorophenyl)-6-oxo-1,6-dihydro-1-pyrimidinyl]-N-[1-[[5-(methoxycarbonyl)benzoxazol-2-yl]carbonyl]-2-phenylethyl]acetamide]
6.89 | Nc1cnc(-c2ccc(F)cc2)n(CC(=O)NC(Cc2ccccc2)C(=O)c2nc3cc(NS(=O)(=O)C(F)(F)F)ccc3o2)c1=O (centres unmarked) [Example 17, 2-[5-amino-2-(4-fluorophenyl)-6-oxo-1,6-dihydro-1-pyrimidinyl]-N-[1-[[5-(trifluoromethanesulfonylamino)benzoxazol-2-yl]carbonyl]-2-phenylethyl]acetamide]
7.32 | O=C(Cn1c(-c2ccc(F)cc2)ncc(NC(=O)OCc2ccccc2)c1=O)NC(Cc1ccccc1)C(=O)C1=NCCO1 (centres unmarked) [Example 23, 2-[5-benzyloxycarbonylamino-2-(4-fluorophenyl)-6-oxo-1,6-dihydro-1-pyrimidinyl]-N-[1-[(2-oxazolinyl)carbonyl]-2-phenylethyl]acetamide]
7.03 | Nc1cnc(-c2ccc(F)cc2)n(CC(=O)NC(Cc2ccccc2)C(=O)c2nc3cc(F)ccc3o2)c1=O (centres unmarked) [Example 26, 2-[5-amino-2-(4-fluorophenyl)-6-oxo-1,6-dihydro-1-pyrimidinyl]-N-[1-[(5-fluorobenzoxazol-2-yl)carbonyl]-2-phenylethyl]acetamide]
6.00 | Nc1cnc(-c2ccc(F)cc2)n(CC(=O)NC(Cc2ccc(F)cc2)C(=O)c2nc3ccccc3o2)c1=O (centres unmarked) [Example 40, 2-[5-amino-2-(4-fluorophenyl)-6-oxo-1,6-dihydro-1-pyrimidinyl]-N-[1-[(benzoxazol-2-yl)carbonyl]-2-(4-fluorophenyl)ethyl]acetamide]
8.70 | CCOC(=O)c1ccc2oc(C(=O)C(Cc3ccccc3)NC(=O)Cn3c(-c4ccccc4)ncc(N)c3=O)nc2c1 (centres unmarked) [Example 44]
7.35 | CCOC(=O)c1ccc2oc(C(=O)C(Cc3ccccc3)NC(=O)Cn3c(-c4cccnc4)ncc(N)c3=O)nc2c1 (centres unmarked) [Example 64, 2-[5-amino-6-oxo-2-(3-pyridyl)-1,6-dihydro-1-pyrimidinyl]-N-[1-[[5-(ethoxycarbonyl)benzoxazol-2yl]carbonyl]-2-phenylethyl]acetamide]
7.13 | Nc1cnc(-c2cccnc2)n(CC(=O)NC(Cc2ccccc2)C(=O)c2nc3ncccc3o2)c1=O (centres unmarked) [Example 72, 2-[5-amino-6-oxo-2-(3-pyridyl)-1,6-dihydro-1-pyrimidinyl]-N-[1-[(oxazolo[4,5-b]pyridin-2-yl)carbonyl]-2-phenylethyl]acetamide]
7.38 | COC(=O)c1ccc2oc(C(=O)C(Cc3ccccc3)NC(=O)Cn3c(-c4cccc([N+](=O)[O-])c4)ncc(N)c3=O)nc2c1 (centres unmarked) [Example 80, 2-[5-amino-2-(3-nitrophenyl)-6-oxo-1,6-dihydro-1-pyrimidinyl]-N-[1-[[5-(methoxycarbonyl)benzoxazol-2-yl]carbonyl]-2-phenylethyl]acetamide]
